Several values for one entry are separate records, joined by “and”; a condition that tells them apart may be missing. Equal entries are not always repeated.
Tests used:
[1] = system: immunosuppressive macrophage infiltration; settings: preclinical model of metastatic colorectal cancer; cited from earlier work
[2] = REGOMUNE phase II study: safety (adverse events, CTCAE v5.0); set-up: species or system human; settings: in vivo
Description: After an assessment of eligibility, patients received Regorafenib 160 mg per day on a three weeks on/one week off schedule, in cycles of 28 days. Avelumab treatment began on Day 15 cycle 1, by intravenous infusion once every 2 weeks. Treatment was continued until disease progression, unacceptable toxicity, investigator's decision to discontinue, or withdrawal of patient consent. Participants were monitored for adverse events at every follow-up assessment. Adverse events were graded according to National Cancer Institute Common Terminology Criteria for Adverse Events version 5.0. Laboratory assessments were done at baseline, and every 2 weeks afterwards until treatment discontinuation. Regorafenib dose modifications to manage adverse events were allowed (see study protocol). The dose of Regorafenib could be reduced to 120 mg and then to 80 mg. […] Tumor lesions were assessed according to RECIST version 1.1 at baseline (within 4 weeks prior to Cycle 1 Day 1), and every 8 weeks until disease progression or the start of another treatment. […]
All enrolled patients who initiated the study treatment were included in the safety analysis. […] The median follow-up was calculated using the reverse Kaplan-Meier method. […] Quantitative variables were described using the median and range, and qualitative variables were described using frequency, percentage and 95% confidence interval (binomial law). […]

[3] = system: metastatic colorectal cancer; settings: cited from earlier work
[4] = Regorafenib single agent in addition to supportive care, pivotal study

CNC(=O)c1cc(Oc2ccc(NC(=O)Nc3ccc(Cl)c(C(F)(F)F)c3)c(F)c2)ccn1 [Regorafenib]
Effect on immunosuppressive macrophage infiltration [1]: reduce immunosuppressive macrophage infiltration
Patients with dose reduction or temporary treatment discontinuation because of a drug-related adverse event ([2]; human): 41 patients
Patients with grade 3 or 4 treatment-related adverse events that needed some dose reduction ([3]; CORRECT (as well as CONCUR) study, single agent): up to 54%
Median overall survival [3, 4]: 6.4 months
Median progression-free survival [3, 4]: 1.9 months and 2 months
Objective response rate ([3]; pivotal randomized study): 1%

Avelumab
Patients with dose reduction or temporary treatment discontinuation because of a drug-related adverse event [2]: 17 patients
